Results published in US20240400559A1, “SOLID STATE EMITTERS BASED ON PYRIDINIUM SCAFFOLDS” (Council of Scientific and Industrial Research, priority 2021, published 2024).

Assay: Solution state photophysical studies (absorption, emission, lifetime) in DMSO
Format: physicochemical
Conditions: in DMSO at RT; for λmax (abs.) / λmax (em.): 10 μM; for λmax (em.): under UV light (λexc=365 nm)
Method: For solution state photophysical studies (absorption, emission and lifetime) stock for all compounds (1 mM concentration) were prepared in DMSO solvent. For the measurement, the required volume was added from the stock solution in 1 mL solution to make it final concentration as 10 μM. For aggregation induced emission (AIE) measurement, different ratio of DCM-Hexane solvent mixture (0-99%) was prepared by adding required volume of DCM and Hexane, subsequently measurements were performed by maintaining 10 μM dye concentration in each 1 mL solution.
The AIE images were taken in 5 ml vials which were placed on a handled UV (excitation wavelength 365 nm) instrument. For the solid-state absorption and emission measurements, powder samples were prepared by dissolving compound and BaSO4 in DCM and then evaporated to dryness. Solution Spectra were measured in HORIBA Jobin Yvon Fluorolog using 1 cm path length quartz cuvette. To make the powder more homogenous, mixtures were grinded effectively for few minutes.

Structure (SMILES) | Lifetime [ns] | Rel. QY | Stokes shift [nm] | λmax (abs.) [nm] | λmax (em.) [nm]
COc1ccc(-c2cccc3c4ccc(C)cc4cc(-c4ccccc4)[n+]23)cc1.O=S(=O)([O-])C(F)(F)F [2r, 4-(4-methoxyphenyl)-9-methyl-6-phenylpyrido[2,1-a]isoquinolin-5-ium trifluoro methanesulfonate] | 5.93 | 0.017 | 133 | 405 | 538
COc1ccc(-c2cccc3c4cc(-c5cccc6ccccc56)ccc4cc(-c4ccccc4)[n+]23)cc1.O=S(=O)([O-])C(F)(F)F [2p, 4-(4-methoxyphenyl)-10-(naphthalen-1-yl)-6-phenylpyrido[2,1-a]isoquinolin-5-ium trifluoromethanesulfonate] | 3.38 | 0.032 | 140 | 412 | 552
COc1ccc(-c2cccc3c4ccccc4cc(-c4cc(OC)cc(OC)c4)[n+]23)cc1.O=S(=O)([O-])C(F)(F)F [2y, 6-(3,5-dimethoxyphenyl)-4-(4-methoxyphenyl)pyrido[2,1-a]isoquinolin-5-ium trifluoromethanesulfonate] | 5.72 | 0.006 | 139 | 401 | 540
O=S(=O)([O-])C(F)(F)F.c1ccc(-c2cccc3c4ccccc4cc(-c4ccccc4)[n+]23)cc1 [2a, 4,6-diphenylpyrido[2,1-a]isoquinolin-5-ium trifluoromethanesulfonate] | 5.84 | 0.015 | 116 | 392 | 508
COc1ccc(-c2cccc3c4ccccc4cc(-c4cccc5ccccc45)[n+]23)cc1.O=S(=O)([O-])C(F)(F)F [2aa, 4-(4-methoxyphenyl)-6-(naphthalen-1-yl)pyrido[2,1-a]isoquinolin-5-ium trifluoromethanesulfonate] | 4.09 | 0.062 | 143 | 397 | 540
COc1ccc(-c2cccc3c4cc(OC)cc(OC)c4cc(-c4ccccc4)[n+]23)cc1.O=S(=O)([O-])C(F)(F)F [2u, 8,10-dimethoxy-4-(4-methoxyphenyl)-6-phenylpyrido[2,1-a]isoquinolin-5-ium trifluoromethanesulfonate] | 4.2 | 0.125 | 172 | 430 | 602
COc1ccc(-c2cccc3c4cc(-c5ccccc5)ccc4cc(-c4ccccc4)[n+]23)cc1.O=S(=O)([O-])C(F)(F)F [2o, 4-(4-methoxyphenyl)-6,10-diphenylpyrido[2,1-a]isoquinolin-5-ium trifluoro methanesulfonate] | 3.72 | 0.036 | 129 | 417 | 546
COc1ccc(-c2cccc3c4ccccc4cc(-c4ccccc4)[n+]23)cc1.O=S(=O)([O-])C(F)(F)F [2f, 4-(4-methoxyphenyl)-6-phenylpyrido[2,1-a]isoquinolin-5-ium trifluoromethane sulfonate] | 5.32 | 0.018 | 136 | 404 | 540
O=S(=O)([O-])C(F)(F)F.c1ccc(-c2cc3ccccc3c3cccc(-c4cc5ccccc5c5ccccc45)[n+]23)cc1 [2j, 4-(phenanthren-9-yl)-6-phenylpyrido[2,1-a]isoquinolin-5-ium trifluoromethane sulfonate] | 5.19 | 0.220 | 147 | 397 | 544
COc1ccc(-c2cccc3c4cc(C)cc(C)c4cc(-c4ccccc4)[n+]23)cc1.O=S(=O)([O-])C(F)(F)F [2t, 4-(4-methoxyphenyl)-8.10-dimethyl-6-phenylpyrido[2,1-a]isoquinolin-5-ium trifluoro methanesulfonate] | 4.49 | 0.024 | 132 | 410 | 542
COc1ccc(-c2cccc3c4cc(C)ccc4cc(-c4ccccc4)[n+]23)cc1.O=S(=O)([O-])C(F)(F)F [2m, 4-(4-methoxyphenyl)-10-methyl-6-phenylpyrido[2,1-a]isoquinolin-5-ium trifluoro methanesulfonate] | 3.6 | 0.020 | 131 | 409 | 540
